Reference: US10149838B2, “Small molecule securinine and norsecurinine analogs and their use in inhibiting myeloperoxidase” (MiRx Pharmaceuticals, LLC, priority 2013, dated 2018)

Columns and labels:
MPO [1] = target: T1, MPO (Homo sapiens, UniProt P05164); experiment: MALDI-TOF analysis of heme and heme/compound conjugate in presence of H2O2; assay type: binding; parameters: purchased Cayman Chemical 700170
T1 sequence (P05164 49-745): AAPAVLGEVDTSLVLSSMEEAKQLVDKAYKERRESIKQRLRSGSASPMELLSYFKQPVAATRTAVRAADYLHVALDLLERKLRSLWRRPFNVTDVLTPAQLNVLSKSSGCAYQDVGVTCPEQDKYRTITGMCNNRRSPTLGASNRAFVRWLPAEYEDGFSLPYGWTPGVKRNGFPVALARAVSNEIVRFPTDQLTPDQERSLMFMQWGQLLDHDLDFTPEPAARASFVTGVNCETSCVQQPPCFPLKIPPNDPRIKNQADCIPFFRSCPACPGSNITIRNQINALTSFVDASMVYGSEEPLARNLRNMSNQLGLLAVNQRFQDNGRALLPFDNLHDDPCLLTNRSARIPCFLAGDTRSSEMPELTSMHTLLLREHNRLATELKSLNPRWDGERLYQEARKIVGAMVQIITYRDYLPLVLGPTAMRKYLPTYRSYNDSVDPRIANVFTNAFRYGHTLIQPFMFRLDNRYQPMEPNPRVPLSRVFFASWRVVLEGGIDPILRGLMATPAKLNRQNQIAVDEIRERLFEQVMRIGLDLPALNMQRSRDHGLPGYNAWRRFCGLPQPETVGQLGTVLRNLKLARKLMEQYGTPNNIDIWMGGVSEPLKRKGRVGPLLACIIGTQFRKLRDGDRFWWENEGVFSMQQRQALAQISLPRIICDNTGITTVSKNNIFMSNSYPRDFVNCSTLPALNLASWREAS
Method: (§1) Only MPO (red) and H2O2 promoted a shift in the Soret peak, formation of a new band at 630 nm (blue).
To determine the binding motif/active site of MPO and the compound of interest, a computational docking analysis using a 2.5 A crystal structure (PDB id 3ZSO) was performed. The heme ‘m’ in myeloperoxidase contains two ester bonds at the heme 1 and 5-methyls. In addition, a unique sulfonium ion linkage was observed. […] An inhibitory action of the myeloperoxidase is predicted when such covalent links are formed. Especially docking position of 184B unique and have visible effect on the Hisitidine 336 coordinated iron (FIG. 6E). These docking results explain the observed effects of 184B on the soret peak (˜433). Further MALDI-TOF analysis of heme (un conjugated) and heme/184B conjugated (in presence of H2O2) complexes are liberated from protein and analyzed ions with an ˜m/z>1040, which would be the mass of conjugated heme and 184B compare to unconjugated control only heme (m/z˜694) (FIG. 6F).

thyroid peroxidase = target: T2, thyroid peroxidase (Homo sapiens, UniProt P07202); experiment: Oxidation of ascorbate by thyroid peroxidase and iodide (iodination activity); assay type: biochemical; details: 10 μM, iodide
T2 sequence (P07202 19-933): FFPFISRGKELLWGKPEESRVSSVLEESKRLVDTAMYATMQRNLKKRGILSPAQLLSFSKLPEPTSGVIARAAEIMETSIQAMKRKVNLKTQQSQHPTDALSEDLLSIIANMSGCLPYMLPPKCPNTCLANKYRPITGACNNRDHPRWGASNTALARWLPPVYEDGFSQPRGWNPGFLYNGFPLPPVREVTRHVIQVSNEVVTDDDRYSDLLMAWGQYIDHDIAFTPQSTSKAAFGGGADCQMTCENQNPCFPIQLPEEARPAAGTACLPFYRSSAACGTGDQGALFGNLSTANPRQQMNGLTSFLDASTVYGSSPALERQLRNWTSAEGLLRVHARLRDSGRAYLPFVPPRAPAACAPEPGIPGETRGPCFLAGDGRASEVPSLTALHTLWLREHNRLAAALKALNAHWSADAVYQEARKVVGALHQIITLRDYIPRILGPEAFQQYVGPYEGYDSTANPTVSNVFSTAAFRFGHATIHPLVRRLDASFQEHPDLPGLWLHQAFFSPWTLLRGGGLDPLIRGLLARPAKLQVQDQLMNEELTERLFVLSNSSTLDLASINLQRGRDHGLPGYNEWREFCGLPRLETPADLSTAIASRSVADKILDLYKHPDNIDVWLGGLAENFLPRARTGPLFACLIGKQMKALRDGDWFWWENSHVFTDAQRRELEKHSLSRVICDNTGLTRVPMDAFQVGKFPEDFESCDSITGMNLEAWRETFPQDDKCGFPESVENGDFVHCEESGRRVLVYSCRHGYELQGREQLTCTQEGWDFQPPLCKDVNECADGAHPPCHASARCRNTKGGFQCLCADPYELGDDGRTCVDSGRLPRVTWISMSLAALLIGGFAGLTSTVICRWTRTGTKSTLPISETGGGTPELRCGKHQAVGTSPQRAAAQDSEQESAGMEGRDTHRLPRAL
Excerpt: (§2) All Results are representative of duplicate experiments
(§3) To determine whether these analogues are selective for MPO, rather than being a general peroxidase inhibitor, thyroid peroxidase and lactoperoxidase were selected for oxidase evaluation. The effect of MA20 on the halogenation activities of MPO and thyroid peroxidase were compared by following the oxidation of ascorbate in the presence of chloride or iodide.

human neutrophils = experiment: HOCl production by PMA-stimulated human neutrophils; assay type: cell-based; details: 0.5 μM MA20, PMA 110 ng/ml 30 min
Method: as §2
The reaction was stopped by 251 μg/ml of catalase and 0.5 μM of MA20, and chlorination activity was measured. […] This effect is strikingly similar to MA20's inhibitory effect on purified MPO (FIG. 7C). […] As such, they prevent the production of HOCl without concomitant release of free radicals.

MPO [2] = target: T1, MPO; experiment: UV/visible heme absorption spectra of MPO with compound/H2O2; assay type: binding; parameters: purchased Cayman Chemical 700170
Method: as §1
(§4) It was next set about to investigate the molecular target of the analogs (FIG. 6A). Cultured HL60 cells were treated with either Biotin/Biotin-INVMG1 (securinine) (10 μM) for 2 hr and pull-down experiments using streptavidin magnetic beads were used to pulldown bound molecules, followed by SDS-PAGE analysis (FIG. 6B). […] This 80 kDa protein band was excised, digested with trypsin, and the tryptic digests then analyzed using Mass Spectroscopy. […] The proteins bound to streptavidin beads were next separated using SDS-PAGE and incubated then with anti-human MPO antibody. […] To further confirm the binding of INVMG1 to MPO, the MPO enzyme was incubated with and without INVMG184B/H2O2, and analyzed absorption maxima using UV/visible.

Skin fibroblast (BJ1) = assay type: cell-based
Excerpt: (§5) The securinine analog MPO inhibitors have favorable in vitro and in vivo toxicity profiles.

HEK293 = assay type: cell-based
Excerpt: as §5

[3] = tested on: mouse embryonic fibroblast (MEF); assay type: cell-based
Excerpt: as §5

MPO [4] = target: T1, MPO; experiment: Residual chlorination activity of MPO after incubation with or without H2O2, 150 fold dilution; assay type: biochemical; parameters: purchased Cayman Chemical 700170; details: FIG. 7E
Method: as §2
(§6) To determine the mechanism of this inhibition, the MPO enzyme was incubated with MA20 in the presence or absence of H2O2 for a set time and determined the reduction in chlorination activity of the enzyme. Residual activity was measured by diluting the reaction mixture by 150 fold. Incubation with either MA20 or H2O2 had minimal MPO inhibitory activity (approximately a 25-30% reduction in chlorination activity, FIG. 7E).

in vitro = in vitro ADME; details: human, microsomes
Excerpt: as §5

MPO [5] = target: T1, MPO; experiment: Chlorination assay with purified MPO (HOCl formation, APF fluorescence); assay type: biochemical; parameters: purchased Cayman Chemical 700170
Method: as §2
MPO's catalyzed enzymatic reaction consists of multiple stages (FIG. 3). Chlorination occurs when Complex-I produces hypochlorous acid (HOCl) in the presence of a chloride ion. […] Analogue MA20:
as §6

MPO [6] = target: T1, MPO; experiment: Oxidation of ascorbate by MPO, H2O2 and chloride; assay type: biochemical; parameters: purchased Cayman Chemical 700170; details: 1.0 μM, chloride
Excerpt: as §2, §3

MPO [7] = target: T1, MPO; experiment: Myeloperoxidase Inhibitor Screening Assay Kit (Cayman Chemical), chlorination activity; assay type: biochemical; parameters: purchased Cayman Chemical 700170; details: Table 1; MPO inhibitory activity
Method: The columns are represented as follows: A: Blank; B: Commercial inhibitor; C; Another commercial inhibitor (sc-204107); D: Securinine; E: INVS-MG-98B, F: 14-Iodosecurinine; G; INVS-MG-106B.
The analogs described herein were contacted against MPO and the biological activity was assessed. Tables 1 and 2 show representative biological activity examples and that the listed compounds are potent inhibitors of MPO, specifically that the analogs inhibit chlorination activity. The compounds were tested for MPO inhibitory activity using the Myeloperoxidase Inhibitor Screening Assay Kit (Cayman Chemical Cat #700170) as described in the manufacturers manual
Studies were then aimed at establishing dose dependent relative chlorination activity results of securinine and norsecurinine analogs. As depicted in FIG. 4, the analogs of the present invention were extremely potent in inhibiting chlorination.

MPO [8] = target: T1, MPO; experiment: Biotin pull-down with streptavidin magnetic beads from HL60 cells, SDS-PAGE, MS and western blot; assay type: binding; parameters: endogenous in cells; host or cells: HL60; details: 10 μM, 2 hr, biotin-conjugated
Method: as §1, §4

O=C1C=C2CC(S(=O)(=O)c3ccccc3)[C@@H]3C[C@@]2(O1)[C@H]1CCCCN31 (stereo partly shown) [INVS-MG-184B]
nature of interaction with MPO (heme conjugate) (MPO [1]): irreversible

O=C1C=C2C(S(=O)(=O)c3ccccc3)C[C@@H]3C[C@@]2(O1)C1CCCCN13 (stereo partly shown) [MA20]
effect on the iodination activity of thyroid peroxidase (thyroid peroxidase): negligible
PMA-induced HOCl production by neutrophils (human neutrophils): significantly inhibited
binding with the heme prosthetic group (Soret ~433 nm, peak ~630 nm) (MPO [2]): direct binding
toxicity (cell survival) (Skin fibroblast (BJ1)): significantly lower level of toxicity
toxicity (cell survival) (HEK293): significantly lower level of toxicity
toxicity (cell survival) [3]: significantly lower level of toxicity
MPO activity after addition of compound and H2O2 (MPO [4]; MA20 and H2O2): completely inhibited
reduction in chlorination activity (MPO [4]; incubation with MA20 alone, without H2O2): 25-30%
half-life (in vitro): ~1.33 h
MPO inhibition activity assessed by chlorination activity (MPO [5]; FIG. 7B-C): highest MPO inhibition activity
inhibition potency (chlorination) versus chloride ion concentration (MPO [5]; FIG. 7D): decreased with increasing concentrations of the chloride ion
mechanism of MPO inhibition (MPO [5]; preliminary data): suicidal substrate
oxidation of ascorbate by MPO (MPO [6]): completely blocked

O=C1C=C2C=C[C@@H]3C[C@@]2(O1)[C@H]1CCCCN31 [securinine, Securinine]
% Activity (MPO [7]): 32%
binding to MPO in pull-down (MPO [8]): revealed the binding of MPO
